How the values were obtained:
[1] = tested on: inflammation; experiment: effect of corticosteroid on inflammation; type: in vivo; conditions: super high potency corticosteroid
[2] = tested on: vessel endothelialization; experiment: effect of corticosteroid on vessel endothelialization; type: in vivo; conditions: super high potency corticosteroid

SMILES: CC1CC2C3CCC4=CC(=O)C=CC4(C)C3(F)C(=O)CC2(C)C1(O)C(=O)CCl (centres unmarked) [clobetasone]
- effect with regard to inflammation [1]: beneficial effect with regard to inflammation
- vessel endothelialization [2]: impairment of vessel endothelialization was observed
